# Results: US20200187527A1, “METHODS TO INCREASE SILAGE QUALITY IN CROPS” (Valent BioSciences LLC, priority 2013, published 2020)
# How the values were obtained:
# [1] = tested on: corn; experiment: Example 1 field trial: corn silage quality after foliar RyzUp Smartgrass at V4; format: in vivo, Zea mays (corn); settings: vs untreated Control; 3.2 g GA3/acre (8 g/ha) at V4
# Method: (§1) Field trials were conducted at various locations. Portions of the field were treated with RyzUp® Smartgrass (40% (w/v) GA3 (available from Valent BioSciences Corporation), while other parts of the field were not treated. RyzUp® Smartgrass applications were limited to applications between V3 and V6, with spray volumes for foliar applications ranging from 10-25 gallons/acre.
# (§2) Trials were harvested using commercial equipment at standard timings for corn silage. Both RyzUp® Smartgrass and untreated areas of the field were harvested separately in order to obtain biomass yield (ton/acre). Subsequently, the harvested plant material was used for producing silage.
# (§3) Representative samples were taken for subsequent analysis. Forage was analyzed by standard methods to determine quality parameters including dry matter, crude protein, Acid Detergent Fiber (ADF), Neutral Detergent Fiber (NDF), and starch data. Calculations were included for moisture, adjusted crude protein, Total Digestible Nutrients (TDN), Net Energy for Lactation (NEL), Net Energy for Gain (NEG) and protein solubility. This information was then entered into the MILK 2006 University of Wisconsin Corn Silage evaluation system. Calculations of the milk production, energy content and digestibility per ton of corn biomass were carried out using a calculation method described in the following references: Schwab, E. C., and R. D. Shaver. (2001); b) Schwab, E C et al. (2003); and c) Undersander, D J et al., (1993)
# Modern corn hybrid varieties were grown in a field trial. RyzUp® Smartgrass (40% GA3) was applied at V4 growth stage at a rate of 3.2 g GA^3/acre (8 g/ha). In this trial, silage quality data were analyzed for each variety and the means were used to calculate milk production (Table 1). Percent moisture, crude protein, ADF and NDF were decreased while TDN, starch, and milk production were increased.
# [2] = tested on: corn; experiment: Example 2 field trial: corn silage quality after RyzUp Smartgrass at V5 under drought stress; format: in vivo, Zea mays (corn); settings: vs untreated Control, 6.4 g GA3/acre (16 g/ha) at V5
# Method: as §1, §2, §3
# Corn grown in a field trial was treated at the V5 stage with RyzUp® Smartgrass (GA3 (w/v) 40%) at a rate of 6.4 g GA^3/acre (16 g/ha). Treatments were made in a spray volume of 15 gallons of water per acre with added surfactant. The overall conditions of this trial were drought stress both before and following application.
# [3] = tested on: alfalfa; settings: GA3 applications; cited from earlier work
# [4] = tested on: smooth bromegrass; settings: GA3 applications; cited from earlier work
compound,measurement,setting,value
"C=C1C[C@]23C[C@@]1(O)CC[C@H]2[C@@]12C=C[C@H](O)[C@@](C)(C(=O)O1)[C@H]2[C@@H]3C(=O)O [GA3, gibberellin 3]","% NDF, Percent Difference",[1],−2.7%
same,"% Starch, Percent Difference",[1],+16.7%
same,"% TDN, Percent Difference",[1],+1.2%
same,"Milk (lbs/t), Percent Difference",[1],+2.6%
same,"% NDF, Percent Difference",[2],−17.8%
same,"% Starch, Percent Difference",[2],+55.4%
same,"% TDN, Percent Difference",[2],+8%
same,dry weight,[3],dose-dependent increase
same,growth,[3],dose-dependent increase
same,in vitro digestible dry matter (IVDDM),[3],decreased
same,dry weight,[4],dose-dependent increase
same,growth,[4],dose-dependent increase
same,in vitro digestible dry matter (IVDDM),[4],decreased
